Data published in patent US10590109B2, “Heterocyclic compounds used as FGFR inhibitors” (Nanjing InnoCare Pharma Tech Co., Ltd., priority 2016, dated 2020).

Experiments:
[1] = target: human recombinant FGFR4 catalytic structural domain protein (Homo sapiens (Human), UniProt P22455); test: FGFR4 activity inhibition test (HTRF kinase assay); format: biochemical; details: 90 μM ATP
Experimental: FGFR4 Activity Inhibition Test
The influence of the compound according to the present invention on the activity of fibroblast growth factor receptor 4 (FGFR4) was evaluated by an in vitro kinase assay experiment.
(§1) The experimental method is summarized as follows:
The in vitro activity of FGFR4 was determined by assaying the phosphorylation level of the substrate in the kinase reaction, by means of an HTRF kinase assay kit.
If the IC50 value of the compound was very low, the initial concentration of the compound could be reduced.
After 60 min, the enzyme reaction was terminated by EDTA in the assay solution, and the phosphorylated products were identified by both the Eu^3+ labeled cage-shaped antibody (donor) and the streptavidin labeled XL665 antibody (receptor) at the same time. […] The inhibition percentage of the compound against FGFR4 activity could be calculated with the following formula: Inhibition percentage=100−100*(signalcompound−signalnegative control)/(signalpositive control−signalnegative control)
The IC50 value of the compound was calculated by the following formula, from 10 concentration points, with XLfit (ID Business Solutions Ltd., UK): Y=Bottom+(Top−Bottom)/(1+10^((Log IC50−X)*slope factor)) Where, Y is the inhibition percentage, Bottom is the bottom plateau of the curve (the bottom plateau of the S-type curve), Top is the top plateau of the curve (the top plateau of the S-type curve), and X is the log value of the compound concentration to be measured.

[2] = target: human recombinant FGFR2 catalytic structural domain protein (Homo sapiens (Human), UniProt P21802); test: FGFR2 activity inhibition test (HTRF kinase assay); format: biochemical; details: 50 μM ATP
human recombinant FGFR2 catalytic structural domain protein, sequence (P21802 400-821): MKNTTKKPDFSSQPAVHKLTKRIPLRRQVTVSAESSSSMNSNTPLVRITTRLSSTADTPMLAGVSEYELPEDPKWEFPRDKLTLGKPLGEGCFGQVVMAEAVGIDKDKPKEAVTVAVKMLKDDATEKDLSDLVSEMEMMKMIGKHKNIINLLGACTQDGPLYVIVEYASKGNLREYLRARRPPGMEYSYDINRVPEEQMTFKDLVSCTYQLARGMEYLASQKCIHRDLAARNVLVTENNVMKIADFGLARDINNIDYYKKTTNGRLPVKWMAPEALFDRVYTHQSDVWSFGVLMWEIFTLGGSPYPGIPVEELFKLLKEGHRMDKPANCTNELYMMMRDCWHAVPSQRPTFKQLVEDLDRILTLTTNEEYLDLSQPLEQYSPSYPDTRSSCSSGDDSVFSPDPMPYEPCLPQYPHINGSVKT
Experimental: FGFR2 Activity Inhibition Test
The influence of the compound according to the present invention on the activity of fibroblast growth factor receptor 2 (FGFR2) was evaluated by an in vitro kinase assay experiment.
as §1
The in vitro activity of FGFR2 was determined by assaying the phosphorylation level of the substrate in the kinase reaction, by means of an HTRF kinase assay kit. The reaction buffer comprised the following components: 5-fold diluted Enzymatic buffer/kinase 5× (Cisbio, Catalog number 62EZBFDD) (main ingredient: 50 mM HEPES, pH 7.0), 5 mM MgCl2, 1 mM DTT; the human recombinant FGFR2 catalytic structural domain protein (amino acids 400-821) was commercially available from Beijing Sino Biological Inc., diluted with the reaction buffer to a 0.045 ng/μL kinase solution; the substrate reaction solution comprised a biotin labeled tyrosine kinase substrate diluted with the reaction buffer to 800 nM (Cisbio, catalog number 62TK0PEC), and 50 μM ATP, and the assay solution comprised an Eu^3+ labeled cage-shaped antibody (Cisbio, Catalog number 61T66KLB) diluted with the assay buffer (Cisbio, Catalog number 62SDBRDF) to 0.125 ng/μL, and 50 nM streptavidin labeled XL665 (Cisbio, Catalog number 610SAXLB).
The compound was dissolved and diluted in 100% DMSO to 100 μM, then 4-fold-series diluted with DMSO to a minimum concentration of 0.0061 μM, and each concentration point was then 40-fold diluted with the reaction buffer. If the IC50 value of the compound was very low, the initial concentration of the compound could be reduced.
4 μL of a compound solution and 2 μL of an FGFR2 kinase solution were added into a 384 well assay plate (Thermo, Catalog number 264706), mixed uniformly and then incubated for 15 min at room temperature; subsequently, 4 μL of the substrate reaction solution was added therein, and the reaction mixture was incubated for 60 min at room temperature; and then 10 μL of an assay solution of an equal volume to the reaction was added therein and mixed uniformly, followed by placement at room temperature. After 60 min, the enzyme reaction was terminated by EDTA in the assay solution, and the phosphorylated products were identified by both the Eu^3+ labeled cage-shaped antibody (donor) and the streptavidin labeled XL665 antibody (receptor) at the same time. After the excitation with laser, the donors and receptors that were close to each other experienced energy resonance transfer, and the energy transferred from the donor (620 nm) to the receptor (665 nm) could be detected with Envision. The ratio of 665/620 is in positive correlation to the phosphorylation degree of the substrate, thereby to detect the FGFR2 kinase activity. […] The inhibition percentage of the compound against FGFR2 activity could be calculated with the following formula: Inhibition percentage=100−100*(signalcompound−signalnegative control)/(signalpositive control−signalnegative control)
The IC50 value of the compound was calculated by the following formula, from 10 concentration points, with XLfit (ID Business Solutions Ltd., UK): Y=Bottom+(Top−Bottom)/(1+10^((Log IC50−X)*slope factor))
Where, Y is the inhibition percentage, Bottom is the bottom plateau of the curve (the bottom plateau of the S-type curve), Top is the top plateau of the curve (the top plateau of the S-type curve), and X is the log value of the compound concentration to be measured.

human recombinant FGFR4 catalytic structural domain protein, sequence (P22455 460-802): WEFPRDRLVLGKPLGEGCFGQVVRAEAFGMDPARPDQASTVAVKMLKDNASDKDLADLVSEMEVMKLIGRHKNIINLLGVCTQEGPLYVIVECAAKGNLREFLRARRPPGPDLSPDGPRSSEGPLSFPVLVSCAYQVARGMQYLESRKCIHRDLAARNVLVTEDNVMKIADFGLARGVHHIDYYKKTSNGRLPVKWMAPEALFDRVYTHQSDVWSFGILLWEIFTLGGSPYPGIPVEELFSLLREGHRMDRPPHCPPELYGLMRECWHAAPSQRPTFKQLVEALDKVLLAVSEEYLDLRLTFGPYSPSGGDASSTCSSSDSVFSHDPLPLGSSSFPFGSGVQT

In the case of `COC[C@@H](C)Oc1cc(NC(=O)N(C)c2ccc(CN3CCOCC3=O)c(C=O)n2)ncc1C#N` [Compound 14, (R)-3-(5-cyano-4-((1-methoxyprop-2-yl)oxo)pyrid-2-yl)-1-(6-formyl-5-((3-carbonylmorpholino)methyl)pyrid-2-yl)-1-methylurea], the IC50 [1] is reported as < 10 nM and the IC50 [2] is reported as > 1000 nM.
